From US12331058B2, “SHP2 and CDK4/6 dual-target inhibitory compound and pharmaceutical composition containing the same” (CHINA PHARMACEUTICAL UNIVERSITY, priority 2021, dated 2025)
Where two headings read alike, the source gives them in different places.

Assays:
[1] = tested on: MDA-MB-231 cells; test: In vitro antiproliferative activity (MTT), MDA-MB-231; format: cell-based; conditions: Homo sapiens, MDA-MB-231, 72 h, 3 days of incubation
Protocol: (§1) In Vitro Antiproliferative Activity of Compound 1. Experimental Procedure
(§2) (4) MDA-MB-231, MDA-MB-468 or EMT6 cells are taken out of a liquid nitrogen tank, immediately placed in a constant temperature water bath at 37° C. and melted by shaking, then the cells are poured into a culture flask. The culture solution (containing 10% of fetal bovine serum) is added for dilution. The diluted culture medium is transferred into a centrifuge tube, centrifuged at 1000 r/min for 5 minutes. The supernatant is discarded and fresh culture medium is added for blowing and mixing uniformly. The mixture is transferred into a culture bottle, and cultured in a culture box with a concentration of 5% CO2 at 37° C. When the cells are adhered to the wall and almost fully paved at the bottle bottom, the passage begins. A little amount of fresh culture medium (containing 10% of fetal calf serum) is added to terminate the digestion. The liquid in the culture bottle is poured out, and the culture bottle is washed twice with PBS. The fresh culture medium is added to blow and mix uniformly, and divided evenly into two culture bottles for continuing the culture.
(§3) (5) Cells in the logarithmic phase are taken, and the old culture medium are poured out. The trypsin solution is added for digestion for 3 minutes, and the fresh culture medium containing 10% of fetal bovine serum is added for terminating digestion. The solution is transferred into a centrifuge tube, centrifuged at 1000 r/min for 5 minutes, and the supernatant is discarded. The cells are counted by adding a medium to prepare into a cell suspension. After counting, cells are seeded in 96-well plates at a cell concentration of 5000-10000 cells per well. The 96-well plate with the spread cells is placed in a 5% CO2 incubator at 37° C. for a continuous culture for 24 hours. The drugs are diluted in gradient to 90μ mol/L, 30μ mol/L, 10μ mol/L, […], 0.37μ mol/L with medium and then added to 96-well plates at 100 μL per well, with three multiplex wells per concentration. The control group is added with medium containing solvent with the corresponding concentration, the zeroing hole is added with blank medium with the same volume, and the blank medium is placed in a culture box with 5% CO2 and 37° C. for 3 days of incubation with a replacement of the medium every two days. 20 μL of MTT (5 mg/mL) is added to each well. After mixing uniformly, the mixture is incubated in a 5% CO2 incubator at 37° C. for 4 hours in the absence of light. With a removement of the liquid in the 96-well plate and an addition of 150 μl of DMSO to each well, the mixture is placed on a micro-shaker and shaken to completely dissolve the crystals at the bottom. Subsequently, the 96-well plate is placed in an microplate reader for detection and the absorbance is measured at 490 nm.
(§4) Curve is drawn and inhibition rate of drug to cell and IC50 are calculated. Inhibition ratio=[(average OD value for control group-average OD value for experimental group)/(average OD value for control group-average OD value for blank control group)]×100%. 3. Experimental Results
(§5) The inhibitory activities of the compounds on MDA-MB-231, MDA-MB-468 and EMT6 cell lines are as follows: […]

[2] = tested on: MDA-MB-468 cells; test: In vitro antiproliferative activity (MTT), MDA-MB-468; format: cell-based; conditions: Homo sapiens, MDA-MB-468, 72 h, 3 days of incubation
Protocol: as §1, §2, §3, §4, §5

[3] = tested on: EMT6 cells; test: In vitro antiproliferative activity (MTT), EMT6; format: cell-based; conditions: Mus musculus, EMT6, 72 h, 3 days of incubation
Protocol: as §1, §2, §3, §4, §5

[4] = target: CDK4 (Homo sapiens, UniProt P11802); test: CDK4 enzyme activity test in vitro; format: biochemical; conditions: Caliper EZ Reader II conversion
Chain of CDK4 (P11802 whole entry): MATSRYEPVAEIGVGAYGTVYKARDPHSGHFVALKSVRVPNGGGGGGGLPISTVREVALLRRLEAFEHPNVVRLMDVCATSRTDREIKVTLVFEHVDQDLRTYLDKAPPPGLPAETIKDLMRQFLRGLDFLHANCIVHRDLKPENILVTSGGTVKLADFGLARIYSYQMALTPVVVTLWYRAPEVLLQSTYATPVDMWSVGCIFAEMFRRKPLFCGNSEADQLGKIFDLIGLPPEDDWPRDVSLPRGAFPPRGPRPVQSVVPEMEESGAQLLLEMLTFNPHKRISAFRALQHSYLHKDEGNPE
Chain of CDK4 (P30281 whole entry partner): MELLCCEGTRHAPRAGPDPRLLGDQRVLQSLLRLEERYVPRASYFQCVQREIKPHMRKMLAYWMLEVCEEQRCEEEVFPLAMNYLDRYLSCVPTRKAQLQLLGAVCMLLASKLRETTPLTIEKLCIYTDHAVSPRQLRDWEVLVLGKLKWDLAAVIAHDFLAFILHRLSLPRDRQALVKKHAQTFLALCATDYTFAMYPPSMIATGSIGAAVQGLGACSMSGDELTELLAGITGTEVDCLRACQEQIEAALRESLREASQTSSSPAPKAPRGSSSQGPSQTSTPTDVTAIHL
Protocol: CDK4 Enzyme Activity Test In Vitro
(§7) The compound is dissolved in 100% DMSO to prepare into a 30 mM storage solution, which is stored in −20° C. refrigerator in the dark.
(1) 1×Kinase buffer is prepared.
(2) The preparation of concentration gradient of the compound: tested compound is tested at an initial concentration of 30000 nM according to a customer's request, diluted into a 100% DMSO solution at a 100-fold final concentration in a 384 source plate, diluted by 3-fold with 10 concentrations, 250 nL of compound with a 100-fold final concentration is transferred to the target plate of 384-well-plate by using a dispenser Echo 550.
(3) A Kinase solution with a 2.5-fold final concentration is prepared by using a 1×Kinase buffer.
(4) 10 μL of kinase solution with a 2.5-fold final concentration is added to the compound wells and the positive control wells, respectively; 10 μL of 1×Kinase buffer is added to the negative control wells.
(5) The kinase solution is centrifugated at 1000 rpm for 30 seconds, and incubated at the room temperature for 10 minutes after the reaction plate is shaken and mixed uniformly.
(7) The reaction is initiated by adding 15 μL of the mixed solution of ATP and substrate at a 5/3-fold final concentration.
(8) The 384-well plate is centrifuged at 1000 rpm for 30 seconds, and incubated at the room temperature for 180 minutes after shaking and mixing uniformly.
(9) The kinase reaction is terminated by adding 30 μL of termination detection solution, centrifuged at 1000 rpm for 30 seconds with shaking and mixing uniformly.
(10) The conversion is read by using Caliper EZ Reader II.
Calculation Formula is as follows:
Conversion %_sample denotes a conversion reading of the sample; Conversion % min denotes an average value for negative control wells, represents a conversion reading without enzyme wells; Convesion %_max denotes an average value for positive control wells, represents a conversion reading without compound inhibition wells.

[5] = target: T1, SHP2 (Homo sapiens, UniProt Q06124); test: SHP2 enzyme activity test in vitro;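 also: IC50 derived by variable-slope curve fitting of percent inhibition of SHP2 enzymatic activity plotted against log compound concentration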
T1 sequence (Q06124 1-593): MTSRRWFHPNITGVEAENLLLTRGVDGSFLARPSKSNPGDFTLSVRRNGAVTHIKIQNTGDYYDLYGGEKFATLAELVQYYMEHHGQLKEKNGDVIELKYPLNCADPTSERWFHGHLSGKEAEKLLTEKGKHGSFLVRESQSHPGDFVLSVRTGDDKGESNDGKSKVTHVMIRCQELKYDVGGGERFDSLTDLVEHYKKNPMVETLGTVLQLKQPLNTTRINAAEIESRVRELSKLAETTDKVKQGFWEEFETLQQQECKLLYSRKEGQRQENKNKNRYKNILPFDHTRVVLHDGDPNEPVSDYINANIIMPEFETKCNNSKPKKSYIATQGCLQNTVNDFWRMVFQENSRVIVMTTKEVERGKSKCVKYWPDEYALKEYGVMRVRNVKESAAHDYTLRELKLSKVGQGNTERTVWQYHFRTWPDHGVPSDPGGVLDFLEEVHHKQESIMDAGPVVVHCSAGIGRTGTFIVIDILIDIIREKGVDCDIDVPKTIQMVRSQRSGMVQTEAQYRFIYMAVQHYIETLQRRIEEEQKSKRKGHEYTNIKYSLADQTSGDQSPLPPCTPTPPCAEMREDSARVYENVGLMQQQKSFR
Protocol: SHP2 Enzyme Activity Test In Vitro
SHP2 enzyme activity of the compounds in the above examples are tested as follows.
as §7
The log value for concentration is taken as X-axis and the percent inhibition is taken as Y-axis, and the log (inhibitor) vs. response variable slope of the analysis software GraphPad Prism 5 is used to fit the dose-response curve to obtain the IC50 values for each compound on enzyme activity.

[6] = tested on: SHP2 and CDK4/6; test: In vitro enzyme activity and antiproliferative activity tests (summary statement)
[7] = tested on: MDA-MB-231 cells; test: Cell cycle experiment (PI flow cytometry), MDA-MB-231; format: cell-based; conditions: MDA-MB-231, 48 hours, compared with TNO155, Abemaciclib and their combination
Protocol: (§6) Cells are washed once with PBS and 1 mL of trypsin without EDTA (0.25%) is added. When cells change round and part of the cells are suspended, the digestion is terminated by adding PBS, subsequently, the cells are harvested and fixed in 70% ethanol (500 μL) at 4° C. for 24 hours. Cells are collected by washing with PBS and centrifuged at 1500 rpm for 5 minutes, then stained with PI/RNase in the dark at the room temperature for 30 minutes-60 minutes. After incubation, the cells are analyzed by flow cytometry. All experiments are performed 3 times.

[8] = tested on: MDA-MB-468 cells; test: Cell cycle experiment (PI flow cytometry), MDA-MB-468; format: cell-based; conditions: MDA-MB-468, 48 hours, compared with TNO155, Abemaciclib and their combination
Protocol: as §6

| IC50 [1] [µM] | IC50 [2] [µM] | IC50 [4] [nM] | IC50 [5] [nM] | Compound | IC50 [3] [µM] | further results |
| --- | --- | --- | --- | --- | --- | --- |
|  |  | 31 | > 1000 | Cc1nc2c(F)cc(-c3nc(Nc4ccc(Sc5cnc(N6CCC(C)(N)CC6)cn5)c(C#N)n4)ncc3F)cc2n1C(C)C [Compound 11] |  |  |
|  |  | 141 | > 1000 | Cc1nc2c(F)cc(-c3nc(Nc4ccc(Sc5cnc(N6CCC7(CC6)CO[C@@H](C)[C@H]7N)cn5)c(C#N)n4)ncc3F)cc2n1C(C)C [Compound 12] |  |  |
| 6.4 | 1.8 | 19 | 5 | Cc1nc2c(F)cc(-c3nc(Nc4nccc(Sc5cnc(N6CCC7(CC6)CO[C@@H](C)[C@H]7N)cn5)c4Cl)ncc3F)cc2n1C(C)C [Compound 14] | 0.6 | G0/G1 phase arrest [7]: better cycle G0/G1 phase arrest; G0/G1 phase arrest [8]: better cycle G0/G1 phase arrest; double-target inhibition activity [6]: better double-target inhibition activity |
|  |  | 145 | > 1000 | Cc1nc2c(F)cc(-c3nc(Nc4ccc(Sc5cnc(N6CCC7(CC6)CO[C@@H](C)[C@H]7N)cn5)c(Cl)n4)ncc3F)cc2n1C(C)C [Compound 15] |  |  |
|  |  | > 1000 | > 1000 | Cc1nc2c(F)cc(-c3nc(Nc4cc(Sc5cnc(N6CCC7(CC6)CO[C@@H](C)[C@H]7N)cn5)c(Cl)cn4)ncc3F)cc2n1C(C)C [Compound 17] |  |  |
| 9.6 | 3.7 | 3 | 9 | Cc1nc2c(F)cc(-c3nc(Nc4nccc(Sc5cnc(N6CCC7(CC6)CO[C@@H](C)[C@H]7N)cn5)c4C#N)ncc3F)cc2n1C(C)C [Compound 19] | 0.7 | double-target inhibition activity [6]: better double-target inhibition activity |
|  |  | 123 | 598 | Cc1nc2c(F)cc(-c3nc(Nc4ccc(Cl)c(Sc5cnc(N6CCC7(CC6)CO[C@@H](C)[C@H]7N)cn5)n4)ncc3F)cc2n1C(C)C [Compound 20] |  |  |
|  |  | 9 | > 1000 | Cc1nc2c(F)cc(-c3nc(Nc4cc(Cl)c(Sc5cnc(N6CCC7(CC6)CO[C@@H](C)[C@H]7N)cn5)cn4)ncc3F)cc2n1C(C)C [Compound 21] |  |  |
| 3.2 | 10.5 |  |  | Cc1nc2c(F)cc(-c3nc(Nc4ccc(Sc5cnc(N6CCC7(CC6)CO[C@@H](C)[C@H]7N)cn5)c(Cl)c4)ncc3F)cc2n1C(C)C [Compound 23] | 1.7 | double-target inhibition activity [6]: better double-target inhibition activity; IC50 ([5]; read-out: SHP2 IC50, fluorescence Ex355/Em460, activation peptide): 61 nM |
|  |  | > 1000 | > 1000 | Cc1nc2c(F)cc(-c3nc(Nc4ccc(Sc5cnc(N6CCC7(CC6)Cc6ccccc6[C@H]7N)cn5)c(Cl)n4)ncc3F)cc2n1C(C)C [Compound 24] |  |  |
| 4.6 | 9.1 | 8 | 15 | Cc1nc2c(F)cc(-c3nc(Nc4cccc(Sc5cnc(N6CCC7(CC6)CO[C@@H](C)[C@H]7N)cn5)c4Cl)ncc3F)cc2n1C(C)C [Compound 25] | 0.6 | double-target inhibition activity [6]: better double-target inhibition activity |
| 5.1 | 9.6 | 17 | 48 | Cc1nc2c(F)cc(-c3nc(Nc4cc(Sc5cnc(N6CCC7(CC6)CO[C@@H](C)[C@H]7N)cn5)ccn4)ncc3F)cc2n1C(C)C [Compound 26] | 1.1 | double-target inhibition activity [6]: better double-target inhibition activity |

The next lines start with the molecule.

| Compound | IC50 [1] [µM] | IC50 [2] [µM] | IC50 [4] [nM] | IC50 [5] [nM] | IC50 [3] [µM] | further results |
| --- | --- | --- | --- | --- | --- | --- |
| CCN1CCN(Cc2ccc(Nc3ncc(F)c(-c4cc(F)c5nc(C)n(C(C)C)c5c4)n3)nc2)CC1 [Abemaciclib, reference compound] | > 20 | > 20 |  |  | 4.2 |  |
| CN(C)C(=O)c1cc2cnc(Sc3cnc(N4CCC(C)(N)CC4)cn3)cc2n1C1CCCC1 [Compound 1] |  |  | > 1000 | > 1000 |  |  |
| CN(C)C(=O)c1cc2cnc(Nc3ccc(Sc4cnc(N5CCC(C)(N)CC5)cn4)cn3)nc2n1C1CCCC1 [Compound 2] |  |  | 9 | > 1000 |  |  |
| CN(C)C(=O)c1cc2cnc(Nc3ccc(Sc4cnc(N5CCC6(CC5)Cc5ccccc5[C@H]6N)cn4)c(Cl)c3)nc2n1C1CCCC1 [Compound 3] |  |  | > 1000 | 57 |  |  |
| CN(C)C(=O)c1cc2cnc(Nc3nccc(Sc4cnc(N5CCC(C)(N)CC5)cn4)c3Cl)nc2n1C1CCCC1 [Compound 4] |  |  | 435 | 30 |  |  |
| CN(C)C(=O)c1cc2cnc(Nc3nccc(Sc4cnc(N5CCC6(CC5)Cc5ccccc5[C@H]6N)cn4)c3Cl)nc2n1C1CCCC1 [Compound 5] |  |  | > 1000 | 4 |  |  |
| CN(C)C(=O)c1cc2cnc(Nc3nccc(Sc4cnc(N5CC[C@H](N)c6ccccc6C5)cn4)c3Cl)nc2n1C1CCCC1 [Compound 6] |  |  | > 1000 | 736 |  |  |
| CN(C)C(=O)c1cc2cnc(N(c3ncc4cc(C(=O)N(C)C)n(C5CCCC5)c4n3)c3nccc(Sc4cnc(N5CC[C@H](N)c6ccccc6C5)cn4)c3Cl)nc2n1C1CCCC1 [Compound 7] |  |  | > 1000 | > 1000 |  |  |
| CN(C)C(=O)c1cc2cnc(Nc3nccc(Sc4cnc(N5CCN([C@H]6Cc7ccccc7[C@H]6N)CC5)cn4)c3Cl)nc2n1C1CCCC1 [Compound 8] |  |  | 905 | > 1000 |  |  |
| CN(C)C(=O)c1cc2cnc(Nc3ccc(Sc4cnc(N5CCC6(CC5)Cc5ccccc5[C@H]6N)cn4)c(Cl)n3)nc2n1C1CCCC1 [Compound 9] |  |  | 538 | 36 |  |  |
| Cc1nc2c(F)cc(-c3nc(Nc4nccc(Sc5cnc(N6CCC7(CC6)Cc6ccccc6[C@H]7N)cn5)c4Cl)ncc3F)cc2n1C(C)C [Compound 10] | 4.4 | 5.9 |  | 10 | 1.1 | double-target inhibition activity [6]: better double-target inhibition activity |
| Cc1nc2c(F)cc(-c3nc(Nc4cnc(Sc5cnc(N6CCC7(CC6)CO[C@@H](C)[C@H]7N)cn5)c(Cl)c4)ncc3F)cc2n1C(C)C [Compound 13] |  |  | 11 | 216 |  |  |
| CN(C)C(=O)c1cc2cnc(Nc3ccc(Sc4cnc(N5CCC(C)(N)CC5)cn4)c(Cl)n3)nc2n1C1CCCC1 [Compound 16] |  |  |  | > 1000 |  |  |
| C[C@@H]1OCC2(CCN(c3cnc(Sc4ccnc(N)c4Cl)c(N)n3)CC2)[C@@H]1N [TNO155, reference compound] | > 20 | > 20 |  |  | 7 |  |
